Like-named read-outs stand apart in the source and are kept apart here.
Experiments:
[1] = system: spontaneously hypertensive rats (SHRs); assay: Antihypertensive effect in SHRs, intravenous, tail-cuff SBP/DBP; format: in vivo; conditions: 5 mg/kg intravenous single dose
Description: Animals were obtained from Vital River Laboratory Animal Technology (Beijing, China), who also performed the blood pressure measurements in spontaneously hypertensive rats (SHRs) with a tail systolic blood pressure (SBP) of over 180 mmHg. Animals were fed a normal diet, and tap water was freely available. SHRs (11 weeks, 240 ± 20 g body weight) were raised at room temperature (25 °C) under a 12 h light/dark cycle. […] Captopril (5 mg/kg) was used as a positive control, and the negative control group was injected with an equal volume of saline. The SBP and DBP of the rats were measured using the tail-cuff method before administration and at 2, 4, 6, 12, and 24 h post-administration, using a BP-98A blood pressure monitor (Softron Biotechnology, Beijing, China) after heating the SHRs at 37 °C for 30 min in a warming chamber. All the rats received humane care conforming to the National Institutes of Health Guide for Care and Use of Laboratory Animals. This study was approved by the Ethics Committee of Guangdong medical laboratory animal center (No. 20211001).
Statistical analysis was performed using SPSS 19.0 software ([…]). Experimental data are presented as means ± standard deviations (SD) and were statistically evaluated using one-way analysis of variance (ANOVA) with Duncan’s test. Origin 9.0 (OriginLab, Northampton, MA, USA) software was used to process the data.

[2] = system: ACE; conditions: cited from earlier work; for ACE-inhibitory activity, in words: shark meat hydrolysates, ref [16] Hao Wu et al.
Source text: (§1) Marine organisms, which are rich in unique bioactive proteins, have been widely used in the search for ACE-inhibitory peptides. According to previous studies, many novel ACE-inhibitory peptides with efficient antihypertensive effects were obtained from marine organisms. […] Liu et al. investigated the antihypertensive activity of a protein hydrolysate that was made from Rhopilema esc ...

[3] = system: SHRs; conditions: oral administration in SHRs; ref [17] Lee et al.; cited from earlier work
Source text: as §1

[4] = target: T1, angiotensin-I-converting enzyme (ACE, EC 3.4.15.1, from rabbit lung) (rabbit) (UniProt P12822)
T1 sequence: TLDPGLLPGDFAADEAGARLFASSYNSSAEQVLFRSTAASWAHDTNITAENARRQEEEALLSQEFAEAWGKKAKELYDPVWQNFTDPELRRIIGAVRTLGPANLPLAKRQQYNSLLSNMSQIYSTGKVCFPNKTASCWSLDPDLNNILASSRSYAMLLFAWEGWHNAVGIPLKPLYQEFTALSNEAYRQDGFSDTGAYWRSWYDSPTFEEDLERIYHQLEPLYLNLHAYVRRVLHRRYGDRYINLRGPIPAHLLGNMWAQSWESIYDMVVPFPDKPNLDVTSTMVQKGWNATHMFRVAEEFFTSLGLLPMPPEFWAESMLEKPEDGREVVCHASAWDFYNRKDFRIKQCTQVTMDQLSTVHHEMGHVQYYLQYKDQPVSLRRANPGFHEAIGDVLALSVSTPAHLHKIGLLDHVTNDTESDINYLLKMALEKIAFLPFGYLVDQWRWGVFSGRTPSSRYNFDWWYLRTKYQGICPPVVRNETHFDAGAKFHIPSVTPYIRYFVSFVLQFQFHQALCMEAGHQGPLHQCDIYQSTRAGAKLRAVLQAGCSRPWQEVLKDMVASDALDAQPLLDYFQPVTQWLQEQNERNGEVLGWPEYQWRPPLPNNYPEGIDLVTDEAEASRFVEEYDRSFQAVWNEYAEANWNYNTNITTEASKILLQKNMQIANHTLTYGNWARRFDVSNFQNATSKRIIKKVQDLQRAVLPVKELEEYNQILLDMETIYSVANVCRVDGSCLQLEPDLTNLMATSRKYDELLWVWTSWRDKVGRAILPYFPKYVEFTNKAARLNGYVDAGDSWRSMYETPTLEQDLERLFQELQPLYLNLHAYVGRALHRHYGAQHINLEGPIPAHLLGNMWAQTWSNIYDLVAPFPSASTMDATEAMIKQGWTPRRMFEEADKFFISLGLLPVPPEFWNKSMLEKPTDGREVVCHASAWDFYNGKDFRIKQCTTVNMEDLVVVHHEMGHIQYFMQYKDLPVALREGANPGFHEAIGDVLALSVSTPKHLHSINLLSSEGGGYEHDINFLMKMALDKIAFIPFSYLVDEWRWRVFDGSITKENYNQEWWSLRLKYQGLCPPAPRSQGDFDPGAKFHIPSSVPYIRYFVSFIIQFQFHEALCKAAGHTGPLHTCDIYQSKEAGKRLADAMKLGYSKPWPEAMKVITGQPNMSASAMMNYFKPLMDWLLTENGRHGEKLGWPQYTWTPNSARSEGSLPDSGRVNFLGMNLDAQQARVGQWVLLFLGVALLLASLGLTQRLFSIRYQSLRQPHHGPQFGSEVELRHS

[5] = ref [14] Ghassem et al., read-out: IC50, ACE-inhibitory peptides from snakehead fish

For `C[C@H](CS)C(=O)N1CCC[C@H]1C(=O)O` [Captopril, captopril], which “systolic blood pressure (SBP) at 4 h” value ([1]; 4 h, p < 0.05) is on record?
The value was 151 mmHg.

And the “systolic blood pressure (SBP) at 24 h” value ([1]; 24 h)?
Its value is 161 mmHg.

What about the “systolic blood pressure (SBP), starting value” ([1]; value from which SBP fell) of the same molecule?
Its value is 190 mmHg.

Which “ACE-inhibitory activity, in words” value [2] does the source give for Cys-Phe here?
Its value is “high ACE-inhibitory activity”.

Which “ACE-inhibitory activity, in words” value [2] does the source give for Glu-Tyr here?
The value was “high ACE-inhibitory activity”.

Which “ACE inhibition mode, tuna frame peptide” value ([2]; ref [17] Lee et al.) does the source give for “Gly-Asp-Leu-Gly-Lys-Thr-Thr-Thr-Val-Ser-Asn-Trp-Ser-Pro-Pro-Lys-Try-Lys-Asp-Thr-Pro [PTFP]” here?
The value was “non-competitive inhibitor”.

What about the IC50 ([2]; ref [17] Lee et al., read-out: IC50, ACE-inhibitory peptide from tuna frame protein) of the same molecule?
Its IC50 is 11300 nM.

And the “antihypertensive effect, in words” value [3]?
Its value is “has an antihypertensive effect after oral administration in SHRs”.

With LYPPP as the molecule, how does the IC50 [2, 5] read?
The IC50 was 1300 nM.

Which “ACE-inhibitory activity, in words” value [2] does the source give for Met-Phe here?
Its value is “high ACE-inhibitory activity”.

Which “ACE-inhibitory activity, in words” value [2] does the source give for Phe-Glu here?
The value was “high ACE-inhibitory activity”.

For YSMYPP, which IC50 [2, 5] is on record?
Its IC50 is 2800 nM.

With PPLLFAAL [PPLLFAAL (Pro-Pro-Leu-Leu-Phe-Ala-Ala-Leu)] as the molecule, how does the ACE-inhibitory activity (hydrolysis of hippuryl-L-histidyl-L-leucine to hippuric acid, RP-HPLC at 220 nm, 37 °C, pH 8.3, 0.3 M NaCl), IC50 of the synthetic peptide [4] read?
Its ACE-inhibitory activity (hydrolysis of hippuryl-L-histidyl-L-leucine to hippuric acid, RP-HPLC at 220 nm, 37 °C, pH 8.3, 0.3 M NaCl), IC50 of the synthetic peptide is 28 μmol·L^−1.

From PMC8705986, “A Novel Angiotensin-I-Converting Enzyme (ACE) Inhibitory Peptide from Takifugu flavidus” (Marine Drugs, 2021)
